Results reported in ChEMBL document CHEMBL5724914, “Linking interpersonal differences in gut microbiota composition and drug biotransformation activity” (2024).

Key:
[1] = The drug is tested on WLS-007 corresponding to human gut metagenome with ENA study accession number: PRJEB37062 and ENA sample accession number: ERS12561742 for biotransformation under anaerobic condition. The drug concentrations were measured over 9 timepoints collected between 0 and 24 hours of incubation by liquid-chromatography-coupled mass spectrometry (LC–MS); conditions: 2 µM
[2] = The drug is tested on Z-013 corresponding to rabbit gut metagenome with ENA study accession number: PRJEB37062 and ENA sample accession number: ERS12561813 for biotransformation under anaerobic condition. The drug concentrations were measured over 9 timepoints collected between 0 and 24 hours of incubation by liquid-chromatography-coupled mass spectrometry (LC–MS); conditions: 2 µM
[3] = human gut metagenome, 24 h, 2 µM
[4] = The drug is tested on Z-006 corresponding to mouse gut metagenome with ENA study accession number: PRJEB37062 and ENA sample accession number: ERS12561806 for biotransformation under anaerobic condition. The drug concentrations were measured over 9 timepoints collected between 0 and 24 hours of incubation by liquid-chromatography-coupled mass spectrometry (LC–MS); conditions: 2 µM
[5] = human gut metagenome, 24 h, 2 µM; remark: listed apart in the source
[6] = human gut metagenome, 24 h, 2 µM; remark: listed apart in the source
[7] = The drug is tested on WLS-082 corresponding to human gut metagenome with ENA study accession number: PRJEB37062 and ENA sample accession number: ERS12561751 for biotransformation under anaerobic condition. The drug concentrations were measured over 9 timepoints collected between 0 and 24 hours of incubation by liquid-chromatography-coupled mass spectrometry (LC–MS); conditions: 2 µM
[8] = human gut metagenome, 24 h, 2 µM; remark: listed apart in the source
[9] = human gut metagenome, 24 h, 2 µM; remark: listed apart in the source
[10] = The drug is tested on Z-011 corresponding to mouse gut metagenome with ENA study accession number: PRJEB37062 and ENA sample accession number: ERS12561811 for biotransformation under anaerobic condition. The drug concentrations were measured over 9 timepoints collected between 0 and 24 hours of incubation by liquid-chromatography-coupled mass spectrometry (LC–MS); conditions: 2 µM
[11] = The drug is tested on WLS-052 corresponding to human gut metagenome with ENA study accession number: PRJEB37062 and ENA sample accession number: ERS12561747 for biotransformation under anaerobic condition. The drug concentrations were measured over 9 timepoints collected between 0 and 24 hours of incubation by liquid-chromatography-coupled mass spectrometry (LC–MS); conditions: 2 µM
[12] = The drug is tested on WLS-350 corresponding to human gut metagenome with ENA study accession number: PRJEB37062 and ENA sample accession number: ERS12561789 for biotransformation under anaerobic condition. The drug concentrations were measured over 9 timepoints collected between 0 and 24 hours of incubation by liquid-chromatography-coupled mass spectrometry (LC–MS); conditions: 2 µM
[13] = The drug is tested on WLS-039 corresponding to human gut metagenome with ENA study accession number: PRJEB37062 and ENA sample accession number: ERS12561746 for biotransformation under anaerobic condition. The drug concentrations were measured over 9 timepoints collected between 0 and 24 hours of incubation by liquid-chromatography-coupled mass spectrometry (LC–MS); conditions: 2 µM
[14] = human gut metagenome, 24 h, 2 µM; remark: listed apart in the source
[15] = human gut metagenome, 24 h, 2 µM; remark: listed apart in the source
[16] = The drug is tested on WLS-370 corresponding to human gut metagenome with ENA study accession number: PRJEB37062 and ENA sample accession number: ERS12561793 for biotransformation under anaerobic condition. The drug concentrations were measured over 9 timepoints collected between 0 and 24 hours of incubation by liquid-chromatography-coupled mass spectrometry (LC–MS); conditions: 2 µM
[17] = human gut metagenome, 24 h, 2 µM; remark: listed apart in the source
[18] = The drug is tested on WLS-010 corresponding to human gut metagenome with ENA study accession number: PRJEB37062 and ENA sample accession number: ERS12561743 for biotransformation under anaerobic condition. The drug concentrations were measured over 9 timepoints collected between 0 and 24 hours of incubation by liquid-chromatography-coupled mass spectrometry (LC–MS); conditions: 2 µM
[19] = human gut metagenome, 24 h, 2 µM; remark: listed apart in the source
[20] = The drug is tested on WLS-006 corresponding to human gut metagenome with ENA study accession number: PRJEB37062 and ENA sample accession number: ERS12561741 for biotransformation under anaerobic condition. The drug concentrations were measured over 9 timepoints collected between 0 and 24 hours of incubation by liquid-chromatography-coupled mass spectrometry (LC–MS); conditions: 2 µM
Also: call rule not given here.

Br.COc1ccc2c(c1)[C@]13CCCC[C@@H]1[C@H](C2)N(C)CC3.O [DEXTROMETHORPHAN HYDROBROMIDE]
Bacterial Biotransformation [1]: Compound NOT metabolized | Bacterial Biotransformation [2]: Compound NOT metabolized | Bacterial Biotransformation [3]: Compound NOT metabolized | Bacterial Biotransformation [4]: Compound NOT metabolized | Bacterial Biotransformation [5]: Compound NOT metabolized | Bacterial Biotransformation [6]: Compound NOT metabolized | Bacterial Biotransformation [7]: Compound NOT metabolized | Bacterial Biotransformation [8]: Compound NOT metabolized | Bacterial Biotransformation [9]: Compound metabolized | Bacterial Biotransformation [10]: Compound NOT metabolized | Bacterial Biotransformation [11]: Compound NOT metabolized | Bacterial Biotransformation [12]: Compound metabolized | Bacterial Biotransformation [13]: Compound NOT metabolized | Bacterial Biotransformation [14]: Compound metabolized | Bacterial Biotransformation [15]: Compound metabolized | Bacterial Biotransformation [16]: Compound metabolized | Bacterial Biotransformation [17]: Compound NOT metabolized | Bacterial Biotransformation [18]: Compound metabolized | Bacterial Biotransformation [19]: Compound NOT metabolized | Bacterial Biotransformation [20]: Compound metabolized

CC(C)(C)NC[C@H](O)COc1nsnc1N1CCOCC1.O=C(O)/C=C\C(=O)O [TIMOLOL MALEATE]
Bacterial Biotransformation [1]: Compound NOT metabolized | Bacterial Biotransformation [2]: Compound NOT metabolized | Bacterial Biotransformation [3]: Compound NOT metabolized | Bacterial Biotransformation [4]: Compound NOT metabolized | Bacterial Biotransformation [5]: Compound NOT metabolized | Bacterial Biotransformation [6]: Compound NOT metabolized | Bacterial Biotransformation [7]: Compound NOT metabolized | Bacterial Biotransformation [8]: Compound NOT metabolized | Bacterial Biotransformation [9]: Compound NOT metabolized | Bacterial Biotransformation [10]: Compound NOT metabolized | Bacterial Biotransformation [11]: Compound NOT metabolized | Bacterial Biotransformation [12]: Compound NOT metabolized | Bacterial Biotransformation [13]: Compound NOT metabolized | Bacterial Biotransformation [14]: Compound NOT metabolized | Bacterial Biotransformation [15]: Compound NOT metabolized | Bacterial Biotransformation [16]: Compound NOT metabolized | Bacterial Biotransformation [17]: Compound NOT metabolized | Bacterial Biotransformation [18]: Compound NOT metabolized | Bacterial Biotransformation [19]: Compound NOT metabolized | Bacterial Biotransformation [20]: Compound NOT metabolized

Cc1ccccc1C(OCCN(C)C)c1ccccc1.O=C(O)CC(O)(CC(=O)O)C(=O)O (stereo not given) [ORPHENADRINE CITRATE]
Bacterial Biotransformation [1]: Compound metabolized | Bacterial Biotransformation [2]: Compound NOT metabolized | Bacterial Biotransformation [3]: Compound NOT metabolized | Bacterial Biotransformation [4]: Compound NOT metabolized | Bacterial Biotransformation [5]: Compound NOT metabolized | Bacterial Biotransformation [6]: Compound NOT metabolized | Bacterial Biotransformation [7]: Compound NOT metabolized | Bacterial Biotransformation [8]: Compound NOT metabolized | Bacterial Biotransformation [9]: Compound NOT metabolized | Bacterial Biotransformation [10]: Compound NOT metabolized | Bacterial Biotransformation [11]: Compound NOT metabolized | Bacterial Biotransformation [12]: Compound NOT metabolized | Bacterial Biotransformation [13]: Compound metabolized | Bacterial Biotransformation [14]: Compound metabolized | Bacterial Biotransformation [15]: Compound NOT metabolized | Bacterial Biotransformation [16]: Compound NOT metabolized | Bacterial Biotransformation [17]: Compound NOT metabolized | Bacterial Biotransformation [18]: Compound metabolized | Bacterial Biotransformation [19]: Compound metabolized | Bacterial Biotransformation [20]: Compound metabolized

CCN(CC)CCOC(=O)C1(C2CCCCC2)CCCCC1 [DICYCLOMINE]
Bacterial Biotransformation [1]: Compound metabolized | Bacterial Biotransformation [2]: Compound NOT metabolized | Bacterial Biotransformation [3]: Compound metabolized | Bacterial Biotransformation [4]: Compound NOT metabolized | Bacterial Biotransformation [5]: Compound NOT metabolized | Bacterial Biotransformation [6]: Compound NOT metabolized | Bacterial Biotransformation [7]: Compound metabolized | Bacterial Biotransformation [8]: Compound NOT metabolized | Bacterial Biotransformation [9]: Compound NOT metabolized | Bacterial Biotransformation [10]: Compound NOT metabolized | Bacterial Biotransformation [11]: Compound NOT metabolized | Bacterial Biotransformation [12]: Compound NOT metabolized | Bacterial Biotransformation [13]: Compound NOT metabolized | Bacterial Biotransformation [14]: Compound metabolized | Bacterial Biotransformation [15]: Compound NOT metabolized | Bacterial Biotransformation [16]: Compound NOT metabolized | Bacterial Biotransformation [17]: Compound NOT metabolized | Bacterial Biotransformation [18]: Compound metabolized | Bacterial Biotransformation [19]: Compound NOT metabolized | Bacterial Biotransformation [20]: Compound metabolized

Nc1nnc(-c2cccc(Cl)c2Cl)c(N)n1 [LAMOTRIGINE]
Bacterial Biotransformation [1]: Compound NOT metabolized | Bacterial Biotransformation [2]: Compound NOT metabolized | Bacterial Biotransformation [3]: Compound NOT metabolized | Bacterial Biotransformation [4]: Compound NOT metabolized | Bacterial Biotransformation [5]: Compound NOT metabolized | Bacterial Biotransformation [6]: Compound NOT metabolized | Bacterial Biotransformation [7]: Compound NOT metabolized | Bacterial Biotransformation [8]: Compound NOT metabolized | Bacterial Biotransformation [9]: Compound NOT metabolized | Bacterial Biotransformation [10]: Compound NOT metabolized | Bacterial Biotransformation [11]: Compound NOT metabolized | Bacterial Biotransformation [12]: Compound NOT metabolized | Bacterial Biotransformation [13]: Compound NOT metabolized | Bacterial Biotransformation [14]: Compound metabolized | Bacterial Biotransformation [15]: Compound NOT metabolized | Bacterial Biotransformation [16]: Compound NOT metabolized | Bacterial Biotransformation [17]: Compound NOT metabolized | Bacterial Biotransformation [18]: Compound NOT metabolized | Bacterial Biotransformation [19]: Compound NOT metabolized | Bacterial Biotransformation [20]: Compound NOT metabolized

OC(c1cc(C(F)(F)F)nc2c(C(F)(F)F)cccc12)C1CCCCN1 (stereo not given) [MEFLOQUINE]
Bacterial Biotransformation [1]: Compound NOT metabolized | Bacterial Biotransformation [2]: Compound NOT metabolized | Bacterial Biotransformation [3]: Compound metabolized | Bacterial Biotransformation [4]: Compound NOT metabolized | Bacterial Biotransformation [5]: Compound NOT metabolized | Bacterial Biotransformation [6]: Compound metabolized | Bacterial Biotransformation [7]: Compound metabolized | Bacterial Biotransformation [8]: Compound NOT metabolized | Bacterial Biotransformation [9]: Compound NOT metabolized | Bacterial Biotransformation [10]: Compound metabolized | Bacterial Biotransformation [11]: Compound metabolized | Bacterial Biotransformation [12]: Compound NOT metabolized | Bacterial Biotransformation [13]: Compound metabolized | Bacterial Biotransformation [14]: Compound metabolized | Bacterial Biotransformation [15]: Compound metabolized | Bacterial Biotransformation [16]: Compound metabolized | Bacterial Biotransformation [17]: Compound NOT metabolized | Bacterial Biotransformation [18]: Compound metabolized | Bacterial Biotransformation [19]: Compound NOT metabolized | Bacterial Biotransformation [20]: Compound metabolized
